Assay results reported in US9572858B2, “Composition for treating and preventing benign prostatic hyperplasia” (GemVax & KAEL Co., Ltd., priority 2013, dated 2017).

Columns and labels:
5α-reductase = assay: Expression of 5α-reductase in ventral prostate by RT-PCR, BPH induced animal model; assay type: in vivo, Sprague-Dawley male rats; conditions: sulpiride 40 mg/kg alone, 60 days, rat
From the text: As androgen, the most commonly used hormone in the body is testosterone. But the most powerful hormone of androgens related to development of prostate is 5α-dihydrotestosterone (DHT) which is made by combining testosterone and 5α-reductase. […] It is reported that DHT made by hyperprolactinemia make more gaining weight in lateral lobe than dorsal lobe or ventral lobe of prostate. Based on this fact, the experiment using PEP1 according to example 1 only or co-administration with other test material to BPH induced animal model was done as follows. […] Also before administrating the test materials, the body weights of every animal were measured and recorded.
Sulpiride as test material was purchased from Sigma Chemical Co. (St. Louis, Mo., USA) and used for the experiment. […] The dosage of the administration was calculated based on the concentration of 0.5 ml/kg with reflecting the body weight measured every day. […]
After administrating sulpiride with test materials for 60 days and collecting ventral prostate, the effect to the expression of 5α-reductase was measured by using RT-PCR. […] After then RNA was quantified by using spectrophotometer. […] For the control of quantification in electrophoresis, GAPDH whose expression level is not changed by other drugs was used. […]

[1] = tested on: BPH induced animal model (sulpiride); assay: Organ weights in sulpiride BPH induced animal model; assay type: in vivo, Sprague-Dawley male rats; conditions: rat
[2] = Sulpiride 40 mg/kg 60 days alone (BPH induction)
[3] = Sulpiride 40 mg/kg 60 days + Finasteride 5 mg/kg

Level of 5α-reductase expression in ventral prostate (RT-PCR) (5α-reductase)	Structure (SMILES)	Weight of prostate [1, 2] [g]	Weight of seminal vesicle [1, 2] [g]	Prostate index ([1]; Sulpiride 40 mg/kg 60 days alone (BPH induction), equation Final prostate weight/body weight)	Prostate index [1, 3]	Weight of prostate [1, 3] [g]	Weight of seminal vesicle [1, 3] [g]
increased	CCN1CCCC1CNC(=O)c1cc(S(N)(=O)=O)ccc1OC (stereo not shown) [Sulpiride, sulpiride]	1.59 ± 0.05	1.23 ± 0.11	0.303			
	CC(C)(C)NC(=O)[C@H]1CC[C@H]2[C@@H]3CC[C@H]4NC(=O)C=C[C@]4(C)[C@H]3CC[C@]12C [Finasteride, finasteride]				0.157	0.75 ± 0.06	0.49 ± 0.02
